Experimental data: ChEMBL document CHEMBL1795233, “The geranyl-modified tryptophan residue is crucial for ComXRO-E-2 pheromone biological activity” (Bioorg Med Chem Lett, 2011)
*1 amine or outer side, *2 acyl side, *3 side chain or, on linkers, in order; H or OH if unused. Where a SMILES comes first, the peptide text is derived from it. [ ]: non-standard residue; d: D form. X2 = CC(C)=CCC/C(C)=C/CC/C(C)=C/C[C@]12C[C@@H](C(=O)[*:2])N([*:1])[C@H]1Nc1ccccc12; X4 = CC(C)=CCC/C(C)=C/C[C@]12C[C@@H](C(=O)[*:2])N([*:1])[C@H]1Nc1ccccc12; X1 = C/C(=C\C[C@]12C[C@@H](C(=O)[*:2])N([*:1])[C@H]1Nc1ccccc12)CCCC(C)C; X3 = CC(C)=CC[C@]12C[C@@H](C(=O)[*:2])N([*:1])[C@H]1Nc1ccccc12

What was measured:
Bacillus subtilis [1] = experiment: Effect on quorum sensing-mediated genetic competence in Bacillus subtilis expressing srfA-lacZ fusion assessed as concentration required to show same activity at EC25 of ComXRO-E-2 pheromone after 5 hrs by beta-galactosidase assay
[2] = Effect on quorum sensing-mediated genetic competence in Bacillus subtilis expressing srfA-lacZ fusion assessed as concentration required to show same activity at EC50 of ComXRO-E-2 pheromone after 5 hrs by beta-galactosidase assay
Bacillus subtilis [3] = experiment: Effect on quorum sensing-mediated genetic competence in Bacillus subtilis expressing srfA-lacZ fusion assessed as maximum activity after 5 hrs by beta-galactosidase assay relative to ComXRO-E-2 pheromone

EC25 (Bacillus subtilis [1])	EC50 [2]	Emax (Bacillus subtilis [3])	Structure (SMILES)
> 300 nM	> 300 nM	15%	CC(C)=CCC/C(C)=C/C[C@]12C[C@@H](C(=O)N[C@@H](C)C(=O)O)N(C(=O)[C@H](C)N)[C@H]1Nc1ccccc12
> 300 nM	> 300 nM	20%	CC(C)=CCC/C(C)=C/C[C@]12C[C@@H](C(=O)N[C@@H](C)C(=O)O)N(C(=O)[C@@H](N)CC(C)C)[C@H]1Nc1ccccc12
> 300 nM	> 300 nM	5%	CC(C)=CCC/C(C)=C/C[C@]12C[C@@H](C(=O)N[C@@H](C)C(=O)O)N(C(=O)[C@@H](N)CC(N)=O)[C@H]1Nc1ccccc12
> 300 nM	> 300 nM	0%	CC[C@H](C)[C@H](NC(=O)CN)C(=O)N[C@@H](Cc1ccccc1)C(=O)N1[C@H]2Nc3ccccc3[C@@]2(CC=C(C)C)C[C@H]1C(=O)N[C@@H](CCC(=O)O)C(=O)N[C@@H](CCC(N)=O)C(=O)O (H-GIF[X3]EQ-OH)
> 300 nM	> 300 nM	10%	COC(=O)[C@@H]1C[C@]2(C/C=C(\C)CCC=C(C)C)c3ccccc3N[C@@H]2N1C(=O)[C@H](Cc1ccccc1)NC(C)=O
8 nM	20 nM	60%	CC(C)=CCC/C(C)=C/C[C@]12C[C@@H](C(=O)N[C@@H](CCC(=O)O)C(=O)O)N(C(=O)C(N)Cc3ccccc3)[C@H]1Nc1ccccc12 (single isomer, unassigned)
20 nM	> 300 nM	35%	CC[C@H](C)[C@H](NC(=O)CN)C(=O)N[C@@H](Cc1ccccc1)C(=O)N1[C@H]2Nc3ccccc3[C@@]2(C/C=C(\C)CC/C=C(\C)CCC=C(C)C)C[C@H]1C(=O)N[C@@H](CCC(=O)O)C(=O)N[C@@H](CCC(N)=O)C(=O)O (H-GIF[X2]EQ-OH)
> 300 nM	> 300 nM	0%	CC(C)=CCC/C(C)=C/C[C@]12C[C@@H](C(N)=O)N(C(=O)c3ccccc3)[C@H]1Nc1ccccc12
50 nM	> 300 nM	35%	CC(C)=CCC/C(C)=C/C[C@]12C[C@@H](C(N)=O)N(C(=O)[C@@H](N)Cc3ccccc3)[C@H]1Nc1ccccc12
200 nM	> 300 nM	40%	CC(C)=CCC/C(C)=C/C[C@]12C[C@@H](C(=O)NCC(=O)O)N(C(=O)C(N)Cc3ccccc3)[C@H]1Nc1ccccc12 (single isomer, unassigned)
20 nM	> 300 nM	35%	CC[C@H](C)[C@H](N)C(=O)N1[C@H]2Nc3ccccc3[C@@]2(C/C=C(\C)CCC=C(C)C)C[C@H]1C(=O)N[C@@H](C)C(=O)O
2 nM	20 nM	75%	CC[C@H](C)[C@H](NC(=O)CN)C(=O)N[C@@H](Cc1ccccc1)C(=O)N1[C@H]2Nc3ccccc3[C@@]2(C/C=C(\C)CCCC(C)C)C[C@H]1C(=O)N[C@@H](CCC(=O)O)C(=O)N[C@@H](CCC(N)=O)C(=O)O (H-GIF[X1]EQ-OH)
> 300 nM	> 300 nM	5%	CC(C)=CCC/C(C)=C/C[C@]12C[C@H]3C(=O)N[C@@H](Cc4ccccc4)C(=O)N3[C@H]1Nc1ccccc12
3 nM	60 nM	70%	CC(C)=CCC/C(C)=C/C[C@]12C[C@@H](C(=O)N[C@@H](C)C(=O)O)N(C(=O)C(N)Cc3ccccc3)[C@H]1Nc1ccccc12 (single isomer, unassigned)
> 300 nM	> 300 nM	20%	CC(C)=CCC/C(C)=C/C[C@]12C[C@@H](C(=O)N[C@@H](CCC(=O)O)C(=O)O)N(C(=O)[C@H](C)N)[C@H]1Nc1ccccc12
> 300 nM	> 300 nM	15%	CC(C)=CCC/C(C)=C/C[C@]12C[C@@H](C(=O)N[C@@H](C)C(=O)O)N(C(=O)[C@@H](N)Cc3cc4ccccc4[nH]3)[C@H]1Nc1ccccc12
200 nM	> 300 nM	40%	CC[C@H](C)[C@H](NC(=O)CN)C(=O)N[C@@H](Cc1ccccc1)C(=O)N1[C@H]2Nc3ccccc3[C@@]2(CCC(C)CCCC(C)C)C[C@H]1C(=O)N[C@@H](CCC(=O)O)C(=O)N[C@@H](CCC(N)=O)C(=O)O (mixture of isomers)
0.3 nM	1 nM	–	CC[C@H](C)[C@H](NC(=O)CN)C(=O)N[C@@H](Cc1ccccc1)C(=O)N1[C@H]2Nc3ccccc3[C@@]2(C/C=C(\C)CCC=C(C)C)C[C@H]1C(=O)N[C@@H](CCC(=O)O)C(=O)N[C@@H](CCC(N)=O)C(=O)O (H-GIF[X4]EQ-OH)
> 300 nM	> 300 nM	5%	CC(C)=CCC/C(C)=C/C[C@]12C[C@@H](C(=O)N[C@@H](C)C(=O)O)N(C(=O)[C@@H]3CCCN3)[C@H]1Nc1ccccc12

Structure (SMILES)	EC25 (Bacillus subtilis [1])	EC50 [2]	Emax (Bacillus subtilis [3])
CC(C)=CCC/C(C)=C/C[C@]12C[C@@H](C(=O)N[C@@H](C)C(=O)O)N(C(=O)[C@@H](N)Cc3ccc(O)cc3)[C@H]1Nc1ccccc12	100 nM	> 300 nM	25%
